{"source": "patent US5246966A", "about": "“Substituted alkenoic acid and its derivatives” (Bayer Aktiengesellschaft, priority 1991, dated 1993)", "target": "T1, LTD4 receptor ([3H-LTD4] binding to guinea-pig lung membranes) (Cavia porcellus, UniProt Q2NNR5)", "T1 construct": "guinea-pig lung membranes; from tissue; host or cells: guinea-pig lung membranes", "T1 sequence (Q2NNR5 1-340)": "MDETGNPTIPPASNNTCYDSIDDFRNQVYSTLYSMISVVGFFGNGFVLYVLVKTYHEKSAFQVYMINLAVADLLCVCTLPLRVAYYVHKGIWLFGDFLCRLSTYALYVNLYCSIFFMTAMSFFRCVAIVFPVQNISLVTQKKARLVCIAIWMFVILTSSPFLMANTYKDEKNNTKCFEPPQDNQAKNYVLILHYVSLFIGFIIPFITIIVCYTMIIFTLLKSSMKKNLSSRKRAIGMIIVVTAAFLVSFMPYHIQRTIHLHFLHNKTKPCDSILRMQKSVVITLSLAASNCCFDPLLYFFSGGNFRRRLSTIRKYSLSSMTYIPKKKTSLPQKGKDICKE", "assay": "[3H]-LTD4 binding assay", "details": "displacement of 0.8 nM 3H-LTD4 from guinea-pig lung membranes, 15 minutes at 20° C., pH 7.4; Cheng and Prusoff correction of IC50; read-out: pKi [3H-LTD4] (converted)", "protocol": "To evaluate the pharmacological properties the receptor affinity of the compounds were determined by measuring its ability to displace [^3 H-LTD4 ] binding to guinea-pig lung membranes.\nTest method: [^3 H]-LTD4 BINDING ASSAY\nIncreasing concentrations (between 10^-8 and 10^-5 M) of compounds of general formula I were incubated with 0.8 nM^3 H-LTD4 and guinea-pig lung membranes (100-150 μg protein) for 15 minutes at 20° C. in an assay buffer of 10 mM L-cysteine and 1% polypep in 50 mM Tris HCl at pH 7.4. Incubations (total volume 0.25 ml) were terminated by addition of ice-cold Tris HCl (pH 7.4) and rapidly filtered through Whatman GF/C filters which were washed twice with ice-cold buffer. All points were determined in triplicate.\nThe counts (dpm) bound to each filter were determined by liquid scintillation spectrometry. The amount bound in the presence of each concentration of test compound was compared to the amount of binding in the absence of test compound […] and to the amount bound in the presence of 2 μm LTD4. […]\nWhere 0.8 nM is the dissociation constant for ^3 H-LTD4 under these conditions and [^3 H-LTD4 ] is the precise concentration (in nM) employed in the assay (also determined by liquid scintillation counting).", "data": [{"smiles": "O=C(O)CC[C@@H](/C=C\\Cc1ccc(OCCCCOc2ccccc2)cc1)Sc1ccc(C(=O)O)cc1", "note": "[Example No. 4, Z-[4S]-4-(4-Carboxyphenylthio)-7-[4-(4-phenoxybutoxy)-phenyl]-5-heptenoic acid]", "values": [{"measurement": "Ki", "result": 0.0316, "unit": "µM"}]}]}
